We go through seven molecules from patent publication US9340590B2 (priority 2011, dated 2016).

Where two headings read alike, the source gives them in different places. Positions of bridges follow the written chain, without caps; N, C: chain ends. Non-standard residues stand in square brackets, D forms with d. Residues, ends and D or L forms follow the SMILES beside them. 1Nal = N[C@@H](Cc1cccc2ccccc12)C(=O)O

What all share (test): cell-based
One assay deals with hNav1.3 (Homo sapiens, UniProt Q9NY46). As to conditions: IonWorks Quattro, read-out: IWQ Use Nav1.3.
hNav1.3, sequence (Q9NY46 whole entry, looked up): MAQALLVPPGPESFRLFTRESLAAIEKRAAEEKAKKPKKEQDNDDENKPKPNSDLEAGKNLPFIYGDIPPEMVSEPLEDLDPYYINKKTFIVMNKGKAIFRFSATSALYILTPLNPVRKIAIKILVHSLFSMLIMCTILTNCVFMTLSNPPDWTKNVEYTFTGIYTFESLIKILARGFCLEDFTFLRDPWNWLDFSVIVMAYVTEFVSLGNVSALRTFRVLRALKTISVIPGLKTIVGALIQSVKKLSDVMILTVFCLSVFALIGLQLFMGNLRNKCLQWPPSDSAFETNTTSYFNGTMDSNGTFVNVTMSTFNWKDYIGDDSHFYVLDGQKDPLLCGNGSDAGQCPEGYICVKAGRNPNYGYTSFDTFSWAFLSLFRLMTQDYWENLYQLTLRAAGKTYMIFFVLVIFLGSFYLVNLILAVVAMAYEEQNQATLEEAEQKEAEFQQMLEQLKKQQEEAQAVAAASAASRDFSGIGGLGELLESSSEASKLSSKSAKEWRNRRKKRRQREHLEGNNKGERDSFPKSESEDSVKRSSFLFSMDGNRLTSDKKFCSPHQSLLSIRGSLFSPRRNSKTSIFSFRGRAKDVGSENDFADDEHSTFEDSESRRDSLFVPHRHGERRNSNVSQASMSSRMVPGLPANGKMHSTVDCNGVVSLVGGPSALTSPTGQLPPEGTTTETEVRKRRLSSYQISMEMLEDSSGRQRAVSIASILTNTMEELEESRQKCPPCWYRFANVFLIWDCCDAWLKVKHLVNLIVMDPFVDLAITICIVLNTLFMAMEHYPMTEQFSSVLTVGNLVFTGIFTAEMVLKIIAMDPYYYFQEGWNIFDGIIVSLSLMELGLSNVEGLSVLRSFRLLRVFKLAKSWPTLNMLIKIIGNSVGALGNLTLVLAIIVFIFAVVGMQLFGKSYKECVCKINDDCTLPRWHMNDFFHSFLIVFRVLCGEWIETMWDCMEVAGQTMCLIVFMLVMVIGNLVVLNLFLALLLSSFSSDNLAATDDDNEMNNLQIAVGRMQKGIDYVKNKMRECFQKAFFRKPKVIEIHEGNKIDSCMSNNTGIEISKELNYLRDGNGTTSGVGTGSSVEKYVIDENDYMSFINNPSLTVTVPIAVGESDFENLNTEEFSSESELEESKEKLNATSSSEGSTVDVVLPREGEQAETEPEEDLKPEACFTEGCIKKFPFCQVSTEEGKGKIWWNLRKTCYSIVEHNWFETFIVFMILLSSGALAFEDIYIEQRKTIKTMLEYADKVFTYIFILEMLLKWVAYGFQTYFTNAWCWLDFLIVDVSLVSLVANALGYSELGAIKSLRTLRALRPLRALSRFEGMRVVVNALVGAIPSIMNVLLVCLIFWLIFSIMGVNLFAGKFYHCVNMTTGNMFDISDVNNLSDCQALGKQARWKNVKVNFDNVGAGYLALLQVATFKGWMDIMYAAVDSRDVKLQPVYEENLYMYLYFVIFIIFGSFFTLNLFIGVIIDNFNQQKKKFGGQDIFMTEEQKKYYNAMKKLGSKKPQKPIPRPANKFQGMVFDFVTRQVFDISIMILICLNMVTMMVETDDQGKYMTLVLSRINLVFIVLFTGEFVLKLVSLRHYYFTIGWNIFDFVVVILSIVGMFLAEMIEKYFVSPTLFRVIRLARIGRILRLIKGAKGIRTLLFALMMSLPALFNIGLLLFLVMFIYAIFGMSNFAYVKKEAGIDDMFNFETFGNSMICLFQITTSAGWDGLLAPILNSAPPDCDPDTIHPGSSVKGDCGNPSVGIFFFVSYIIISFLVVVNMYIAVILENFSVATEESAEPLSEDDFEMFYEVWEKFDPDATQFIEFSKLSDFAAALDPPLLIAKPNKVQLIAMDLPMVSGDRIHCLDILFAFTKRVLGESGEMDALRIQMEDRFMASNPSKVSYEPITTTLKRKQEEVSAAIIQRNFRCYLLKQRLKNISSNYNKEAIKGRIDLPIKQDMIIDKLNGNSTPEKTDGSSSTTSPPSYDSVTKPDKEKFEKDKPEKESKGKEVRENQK
Another assay has as its target hNav1.5 (Homo sapiens, UniProt Q14524).
A further assay has as its target hNav1.7 (Homo sapiens, UniProt Q15858). In kind it is cell-based.
The mark [1] stands for this setting: IonWorks Quattro, Use, read-out: IWQ Use Nav1.5.
The mark [2] stands for this setting: IonWorks Quattro, Use, read-out: IWQ Use Nav1.7.

hNav1.7, sequence (Q15858 whole entry, looked up): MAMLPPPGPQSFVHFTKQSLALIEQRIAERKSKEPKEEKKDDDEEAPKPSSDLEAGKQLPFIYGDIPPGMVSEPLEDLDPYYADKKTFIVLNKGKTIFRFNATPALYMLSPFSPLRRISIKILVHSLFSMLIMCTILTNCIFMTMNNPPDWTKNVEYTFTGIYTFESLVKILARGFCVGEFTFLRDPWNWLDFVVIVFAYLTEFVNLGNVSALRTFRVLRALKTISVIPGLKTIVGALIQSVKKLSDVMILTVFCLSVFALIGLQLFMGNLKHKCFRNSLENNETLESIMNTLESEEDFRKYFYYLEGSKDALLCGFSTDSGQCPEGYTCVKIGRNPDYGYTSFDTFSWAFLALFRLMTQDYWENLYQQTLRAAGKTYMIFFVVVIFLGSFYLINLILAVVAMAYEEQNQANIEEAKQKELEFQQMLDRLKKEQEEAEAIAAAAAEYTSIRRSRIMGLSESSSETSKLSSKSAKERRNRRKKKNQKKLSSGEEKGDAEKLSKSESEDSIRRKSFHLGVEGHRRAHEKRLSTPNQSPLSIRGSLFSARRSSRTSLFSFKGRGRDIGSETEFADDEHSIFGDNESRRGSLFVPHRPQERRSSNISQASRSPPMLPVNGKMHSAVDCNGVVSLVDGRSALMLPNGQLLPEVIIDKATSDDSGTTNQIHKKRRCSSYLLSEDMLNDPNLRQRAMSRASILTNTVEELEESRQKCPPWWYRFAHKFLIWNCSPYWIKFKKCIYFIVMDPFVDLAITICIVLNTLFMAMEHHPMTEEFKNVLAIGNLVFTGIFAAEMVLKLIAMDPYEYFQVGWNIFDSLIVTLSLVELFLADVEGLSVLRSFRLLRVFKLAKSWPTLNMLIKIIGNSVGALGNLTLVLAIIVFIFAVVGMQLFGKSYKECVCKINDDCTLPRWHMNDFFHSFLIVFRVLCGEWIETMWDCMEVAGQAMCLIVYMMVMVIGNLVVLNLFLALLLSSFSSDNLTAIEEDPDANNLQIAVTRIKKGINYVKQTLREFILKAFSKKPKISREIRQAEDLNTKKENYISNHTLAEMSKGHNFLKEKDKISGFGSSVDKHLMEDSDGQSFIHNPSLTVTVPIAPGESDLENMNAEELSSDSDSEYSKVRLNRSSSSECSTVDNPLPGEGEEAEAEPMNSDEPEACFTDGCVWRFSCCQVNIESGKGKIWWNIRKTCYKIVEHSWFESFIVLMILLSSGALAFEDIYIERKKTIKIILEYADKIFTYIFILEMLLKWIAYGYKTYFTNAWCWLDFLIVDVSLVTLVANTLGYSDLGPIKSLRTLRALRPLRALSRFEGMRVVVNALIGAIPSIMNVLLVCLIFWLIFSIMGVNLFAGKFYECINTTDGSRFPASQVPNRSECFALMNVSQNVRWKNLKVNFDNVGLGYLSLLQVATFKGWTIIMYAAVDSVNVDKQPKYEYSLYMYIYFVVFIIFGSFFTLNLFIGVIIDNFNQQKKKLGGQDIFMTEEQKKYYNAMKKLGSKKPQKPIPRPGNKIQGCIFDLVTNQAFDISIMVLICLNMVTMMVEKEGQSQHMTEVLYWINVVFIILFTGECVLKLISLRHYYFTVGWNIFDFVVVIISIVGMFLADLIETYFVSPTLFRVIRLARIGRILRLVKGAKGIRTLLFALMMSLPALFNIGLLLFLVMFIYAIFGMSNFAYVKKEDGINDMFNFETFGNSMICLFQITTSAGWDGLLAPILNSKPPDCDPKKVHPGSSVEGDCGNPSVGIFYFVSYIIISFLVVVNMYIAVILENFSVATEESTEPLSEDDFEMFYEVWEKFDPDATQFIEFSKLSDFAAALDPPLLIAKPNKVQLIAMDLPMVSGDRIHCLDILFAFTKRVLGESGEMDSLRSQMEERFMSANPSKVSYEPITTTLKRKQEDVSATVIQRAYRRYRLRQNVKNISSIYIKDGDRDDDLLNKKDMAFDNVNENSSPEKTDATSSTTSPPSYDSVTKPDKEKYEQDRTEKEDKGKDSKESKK

`CC[C@H](C)[C@@H]1NC(=O)[C@@H]2CSSC[C@@H]3NC(=O)[C@H](C(C)C)NC(=O)[C@H](CC(C)C)NC(=O)[C@H](CC(N)=O)NC(=O)[C@@H]4CCCN4C(=O)[C@H](CCCNC(=N)N)NC(=O)[C@H](CSSC[C@H](NC(=O)[C@@H](N)CC(=O)O)C(=O)N[C@@H](CC(C)C)C(=O)NCC(=O)N[C@@H](Cc4ccccc4)C(=O)N[C@@H](CCSC)C(=O)N[C@@H](CCCNC(=N)N)C(=O)N[C@@H](CCCCN)C(=O)N2)NC(=O)[C@H](CSSC[C@@H](C(=O)N[C@@H](CCCCN)C(=O)N[C@@H](Cc2ccc(O)cc2)C(=O)N[C@H](C(=O)N[C@@H](Cc2ccccc2)C(N)=O)C(C)C)NC(=O)[C@H](Cc2c[nH]c4ccccc24)NC(=O)[C@H](CCCCN)NC(=O)[C@H](Cc2c[nH]cn2)NC(=O)[C@H]([C@@H](C)O)NC(=O)[C@H](CCCNC(=N)N)NC(=O)[C@H](CO)NC3=O)NC(=O)[C@H](CCCCN)NC(=O)[C@H](CC(=O)O)NC(=O)[C@H](Cc2cccc3ccccc23)NC(=O)[C@H](CC(=O)O)NC(=O)[C@@H]2CCCN2C1=O` [compound 163] (H-DCLGFMRKCIPD[1Nal]DKCCRPNLVCSRTHKWCKYVF-NH2; disulfide 2-17, 9-23, 16-30): the IC50 stood at 90 nM on hNav1.3 (Use), 8.27 µM at hNav1.5 (setting [1]) and 110 nM at hNav1.7 (setting [2]).
Regarding `CC[C@H](C)[C@@H]1NC(=O)[C@@H]2CSSC[C@@H]3NC(=O)[C@H](C(C)C)NC(=O)[C@H](Cc4cccc5ccccc45)NC(=O)[C@H](CC(N)=O)NC(=O)[C@@H]4CCCN4C(=O)[C@H](CCCNC(=N)N)NC(=O)[C@H](CSSC[C@H](NC(=O)[C@@H](N)CC(=O)O)C(=O)N[C@@H](CC(C)C)C(=O)NCC(=O)N[C@@H](Cc4ccccc4)C(=O)N[C@@H](CCSC)C(=O)N[C@@H](CCCNC(=N)N)C(=O)N[C@@H](CCCCN)C(=O)N2)NC(=O)[C@H](CSSC[C@@H](C(=O)N[C@@H](CCCCN)C(=O)N[C@@H](Cc2ccc(O)cc2)C(=O)N[C@H](C(=O)N[C@@H](Cc2ccccc2)C(N)=O)C(C)C)NC(=O)[C@H](Cc2c[nH]c4ccccc24)NC(=O)[C@H](CCCCN)NC(=O)[C@H](Cc2c[nH]cn2)NC(=O)[C@H]([C@@H](C)O)NC(=O)[C@H](CCCNC(=N)N)NC(=O)[C@H](CO)NC3=O)NC(=O)[C@H](CCCCN)NC(=O)[C@H](CC(=O)O)NC(=O)[C@H](CC(N)=O)NC(=O)[C@H](CC(=O)O)NC(=O)[C@@H]2CCCN2C1=O` [compound 165] (H-DCLGFMRKCIPDNDKCCRPN[1Nal]VCSRTHKWCKYVF-NH2; disulfide 2-17, 9-23, 16-30), the IC50 was determined as 90 nM on hNav1.3 (Use), 10.6 µM on hNav1.5 (setting [1]) and 80 nM against hNav1.7.
As to `CC[C@H](C)[C@@H]1NC(=O)[C@@H]2CSSC[C@@H]3NC(=O)[C@H](C(C)C)NC(=O)[C@H](CC(C)C)NC(=O)[C@H](CC(N)=O)NC(=O)[C@@H]4CCCN4C(=O)[C@H](CCCNC(=N)N)NC(=O)[C@H](CSSC[C@H](NC(=O)[C@@H](N)CC(=O)O)C(=O)N[C@@H](CC(C)C)C(=O)NCC(=O)N[C@@H](Cc4ccccc4)C(=O)N[C@@H](CCSC)C(=O)N[C@@H](CCCNC(=N)N)C(=O)N[C@@H](CCCCN)C(=O)N2)NC(=O)[C@H](CSSC[C@@H](C(=O)N[C@@H](CCCCN)C(=O)N[C@@H](Cc2ccc(O)cc2)C(=O)N[C@H](C(=O)N[C@@H](Cc2ccccc2)C(N)=O)C(C)C)NC(=O)[C@H](Cc2c[nH]c4ccccc24)NC(=O)[C@H](CCCCN)NC(=O)[C@H](Cc2cccc4ccccc24)NC(=O)[C@H]([C@@H](C)O)NC(=O)[C@H](CCCNC(=N)N)NC(=O)[C@H](CO)NC3=O)NC(=O)[C@H](CCCCN)NC(=O)[C@H](CC(=O)O)NC(=O)[C@H](CC(N)=O)NC(=O)[C@H](CC(=O)O)NC(=O)[C@@H]2CCCN2C1=O` [compound 166] (H-DCLGFMRKCIPDNDKCCRPNLVCSRT[1Nal]KWCKYVF-NH2; disulfide 2-17, 9-23, 16-30), the IC50 at hNav1.3 (Table 23, use, […]) was 430 nM; at hNav1.5 (Table 23, IonWorks Quattro, use, […], read-out: IWQ Use Nav1.5), 0.88 µM; at hNav1.7 (Table 23, IonWorks Quattro, use, […], read-out: IWQ Use Nav1.7), 300 nM.
With `CC[C@H](C)[C@@H]1NC(=O)[C@@H]2CSSC[C@@H]3NC(=O)[C@H](C(C)C)NC(=O)[C@H](CC(C)C)NC(=O)[C@H](CC(N)=O)NC(=O)[C@@H]4CCCN4C(=O)[C@H](CCCNC(=N)N)NC(=O)[C@H](CSSC[C@H](NC(=O)[C@@H](N)CC(=O)O)C(=O)N[C@@H](CC(C)C)C(=O)NCC(=O)N[C@@H](Cc4ccccc4)C(=O)N[C@@H](CCSC)C(=O)N[C@@H](CCCNC(=N)N)C(=O)N[C@@H](CCCCN)C(=O)N2)NC(=O)[C@H](CSSC[C@@H](C(=O)N[C@@H](CCCCN)C(=O)N[C@@H](Cc2ccc(O)cc2)C(=O)N[C@@H](Cc2cccc4ccccc24)C(=O)N[C@@H](Cc2ccccc2)C(N)=O)NC(=O)[C@H](Cc2c[nH]c4ccccc24)NC(=O)[C@H](CCCCN)NC(=O)[C@H](Cc2cnc[nH]2)NC(=O)[C@H]([C@@H](C)O)NC(=O)[C@H](CCCNC(=N)N)NC(=O)[C@H](CO)NC3=O)NC(=O)[C@H](CCCCN)NC(=O)[C@H](CC(=O)O)NC(=O)[C@H](CC(N)=O)NC(=O)[C@H](CC(=O)O)NC(=O)[C@@H]2CCCN2C1=O` [compound 168] (H-DCLGFMRKCIPDNDKCCRPNLVCSRTHKWCKY[1Nal]F-NH2; disulfide 2-17, 9-23, 16-30), the IC50 amounted to 20 nM at hNav1.3 (Table 26, use, […]); 15.7 µM against hNav1.5 (IWQ Use Nav1.5 (μM)); 60 nM at hNav1.7 (Table 26, IonWorks Quattro, use, […], read-out: IWQ Use Nav1.7).
For `CC[C@H](C)[C@@H]1NC(=O)[C@@H]2CSSC[C@@H]3NC(=O)[C@H](C(C)C)NC(=O)[C@H](CC(C)C)NC(=O)[C@H](CC(N)=O)NC(=O)[C@@H]4CCCN4C(=O)[C@H](CCCNC(=N)N)NC(=O)[C@H](CSSC[C@H](NC(=O)[C@@H](N)CC(=O)O)C(=O)N[C@@H](CC(C)C)C(=O)NCC(=O)N[C@@H](Cc4ccccc4)C(=O)N[C@@H](CCSC)C(=O)N[C@@H](CCCNC(=N)N)C(=O)N[C@@H](CCCCN)C(=O)N2)NC(=O)[C@H](CSSC[C@@H](C(=O)N[C@@H](CCCCN)C(=O)N[C@@H](Cc2ccc(O)cc2)C(=O)N[C@H](C(=O)N[C@@H](Cc2ccccc2)C(N)=O)C(C)C)NC(=O)[C@H](Cc2c[nH]c4ccccc24)NC(=O)[C@H](CCCCN)NC(=O)[C@H](Cc2cnc[nH]2)NC(=O)[C@H]([C@@H](C)O)NC(=O)[C@H](CCCNC(=N)N)NC(=O)[C@H](CO)NC3=O)NC(=O)[C@H](CCCCN)NC(=O)[C@H](CC(=O)O)NC(=O)[C@H](CC(N)=O)NC(=O)[C@H](Cc2c[nH]c3ccccc23)NC(=O)[C@@H]2CCCN2C1=O` [compound 172] (H-DCLGFMRKCIPWNDKCCRPNLVCSRTHKWCKYVF-NH2; disulfide 2-17, 9-23, 16-30), the results for the IC50 on hNav1.3 (Use), on hNav1.5 (setting [1]) and on hNav1.7 (setting [2]) were 40 nM, 8.04 µM and 50 nM, respectively.
Regarding `CC[C@H](C)[C@@H]1NC(=O)[C@@H]2CSSC[C@@H]3NC(=O)[C@H](C(C)C)NC(=O)[C@H](CC(C)C)NC(=O)[C@H](CC(N)=O)NC(=O)[C@@H]4CCCN4C(=O)[C@H](CCCNC(=N)N)NC(=O)[C@H](CSSC[C@H](NC(=O)[C@@H](N)CC(=O)O)C(=O)N[C@@H](CC(C)C)C(=O)NCC(=O)N[C@@H](Cc4ccccc4)C(=O)N[C@@H](CCSC)C(=O)N[C@@H](CCCNC(=N)N)C(=O)N[C@@H](CCCCN)C(=O)N2)NC(=O)[C@H](CSSC[C@@H](C(=O)N[C@@H](CCCCN)C(=O)N[C@@H](Cc2ccc(O)cc2)C(=O)N[C@H](C(=O)N[C@@H](Cc2ccccc2)C(N)=O)C(C)C)NC(=O)[C@H](Cc2c[nH]c4ccccc24)NC(=O)[C@H](CCCCN)NC(=O)[C@H](Cc2cnc[nH]2)NC(=O)[C@H]([C@@H](C)O)NC(=O)[C@H](CCCNC(=N)N)NC(=O)[C@H](CO)NC3=O)NC(=O)[C@H](CCCCN)NC(=O)[C@H](CC(=O)O)NC(=O)[C@H](Cc2c[nH]c3ccccc23)NC(=O)[C@H](CC(=O)O)NC(=O)[C@@H]2CCCN2C1=O` [compound 173] (H-DCLGFMRKCIPDWDKCCRPNLVCSRTHKWCKYVF-NH2; disulfide 2-17, 9-23, 16-30), the IC50 on hNav1.3 (Use) was found to be 50 nM; at hNav1.5 (setting [1]), 17.3 µM; at hNav1.7 (setting [2]), 90 nM.
Turning to `CC[C@H](C)[C@@H]1NC(=O)[C@@H]2CSSC[C@@H]3NC(=O)[C@H](C(C)C)NC(=O)[C@H](CC(C)C)NC(=O)[C@H](CC(N)=O)NC(=O)[C@@H]4CCCN4C(=O)[C@H](Cc4c[nH]c5ccccc45)NC(=O)[C@H](CSSC[C@H](NC(=O)[C@@H](N)CC(=O)O)C(=O)N[C@@H](CC(C)C)C(=O)NCC(=O)N[C@@H](Cc4ccccc4)C(=O)N[C@@H](CCSC)C(=O)N[C@@H](CCCNC(=N)N)C(=O)N[C@@H](CCCCN)C(=O)N2)NC(=O)[C@H](CSSC[C@@H](C(=O)N[C@@H](CCCCN)C(=O)N[C@@H](Cc2ccc(O)cc2)C(=O)N[C@H](C(=O)N[C@@H](Cc2ccccc2)C(N)=O)C(C)C)NC(=O)[C@H](Cc2c[nH]c4ccccc24)NC(=O)[C@H](CCCCN)NC(=O)[C@H](Cc2c[nH]cn2)NC(=O)[C@H]([C@@H](C)O)NC(=O)[C@H](CCCNC(=N)N)NC(=O)[C@H](CO)NC3=O)NC(=O)[C@H](CCCCN)NC(=O)[C@H](CC(=O)O)NC(=O)[C@H](CC(N)=O)NC(=O)[C@H](CC(=O)O)NC(=O)[C@@H]2CCCN2C1=O` [compound 174] (H-DCLGFMRKCIPDNDKCCWPNLVCSRTHKWCKYVF-NH2; disulfide 2-17, 9-23, 16-30), the values for the IC50 on hNav1.3 (Use), at hNav1.5 (setting [1]) and on hNav1.7 (setting [2]) were 80 nM, 14.7 µM and 190 nM, respectively.
